Results reported in US20070049518A1, “Novel method of treatment of inflammatory skin conditions” (priority 2005, published 2007).

Key:
[1] = biological target: T1, purified aureolysin type II (Staphylococcus aureus, UniProt P81177); experiment: Aureolysin enzyme inhibition assay, type II; type: biochemical; details: pH 6.8, 37° C., 1 hour; read-out: IC50 value Aureolysin type II
T1 sequence (P81177 1-509): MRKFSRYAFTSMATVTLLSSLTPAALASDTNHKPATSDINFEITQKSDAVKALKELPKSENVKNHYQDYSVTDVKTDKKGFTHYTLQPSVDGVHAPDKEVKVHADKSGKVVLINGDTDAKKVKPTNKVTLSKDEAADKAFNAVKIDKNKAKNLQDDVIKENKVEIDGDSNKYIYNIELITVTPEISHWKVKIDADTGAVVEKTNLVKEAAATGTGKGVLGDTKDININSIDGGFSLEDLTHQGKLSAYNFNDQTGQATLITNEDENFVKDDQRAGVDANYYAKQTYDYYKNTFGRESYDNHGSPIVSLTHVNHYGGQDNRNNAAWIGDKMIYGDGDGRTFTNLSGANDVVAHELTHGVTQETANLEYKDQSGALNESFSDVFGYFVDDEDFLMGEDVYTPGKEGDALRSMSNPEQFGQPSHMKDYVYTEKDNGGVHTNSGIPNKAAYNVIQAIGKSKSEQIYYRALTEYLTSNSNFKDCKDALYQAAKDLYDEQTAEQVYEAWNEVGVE

[2] = biological target: T2, V8 protease (Staphylococcus aureus, UniProt P0C1U8); experiment: Selectivity profile, V8 protease; type: biochemical; details: read-out: inhibition at 0.1 mM, V8 protease
T2 construct: purchased BioCentrum Ltd
T2 sequence (P0C1U8 69-336): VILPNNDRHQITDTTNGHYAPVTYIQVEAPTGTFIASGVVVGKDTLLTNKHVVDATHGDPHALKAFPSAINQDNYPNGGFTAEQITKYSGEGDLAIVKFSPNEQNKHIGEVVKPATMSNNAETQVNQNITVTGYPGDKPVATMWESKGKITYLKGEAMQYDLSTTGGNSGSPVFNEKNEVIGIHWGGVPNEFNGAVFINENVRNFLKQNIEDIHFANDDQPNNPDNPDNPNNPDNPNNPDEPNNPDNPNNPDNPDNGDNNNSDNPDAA
Experimental: Inhibitory activity was tested in reaction mixtures (0.1 ml) containing 2% (v/v) DMSO vehicle±compound plus additions as follows. V8 protease: 90 mM MOPS (sodium) buffer pH 7.0, […] calcium chloride, 0.045% Brij 35, 10 μM Mca-Leu-Glu-Val-Asp-Gly-Trp-Lys(Dnp)-amide (Bachem) and V8 (BioCentrum Ltd; 30 ng). Staphopain A and B: 90 mM MOPS (sodium) buffer pH 7.0, 1.8 mM cysteine-HCl (pH-adjusted with NaOH), 0.045% Brij 35, 0.1 mM Z-Phe-Arg-AMC hydrochloride (Bachem) and staphopain A or B (BioCentrum Ltd; 30 ng). Human kallikrein 5: 0.1M sodium phosphate buffer pH 8.0, 0.045% Brij 35, 0.1 mM Boc-Val-Pro-Arg-AMC (Sigma) and recombinant human kallikrein 5 (R&D Systems Inc; 6 ng). Human kallikrein 7: 72 mM Tris-HCl pH 8.0, 0.033% Brij 35, 1.2 mM S-2586 (Chromogenix Instrumentation Laboratory SpA) and recombinant human kallikrein 7 (R&D Systems Inc; 0.6 μg) that had been thermolysin-activated according to the manufacturer's instructions. Human angiotensin-converting enzyme (ACE): 45 mM MES (sodium) buffer pH 6.5, 0.045% Brij 35, 10 μM Mca-[…]Dnp)-OH(R&D Systems Inc) and recombinant human ACE (R&D Systems Inc; 1.3 ng). Human cathepsin D: 0.1M sodium acetate buffer pH 3.5, 0.2M sodium chloride, 0.045% Brij 35, 10 μM Mca-Pro-Leu-Gly-Leu-Dap(Dnp)-Ala-Arg-amide (Bachem) and recombinant human cathepsin D (R&D Systems Inc; 8 ng) activated according to the manufacturer's instructions. […]

[3] = test system: S. aureus 8325-4; experiment: S. aureus growth by turbidometry in micro-titre plates; type: cell-based, Staphylococcus aureus; details: for inhibition at 100 µM: Staphylococcus aureus, 83254, growth inhibition, overnight, absorbance 620 nm, read-out: Inhibition at 0.1 mM
Experimental: Tryptic soy broth (0.18 ml) containing S. aureus 8325-4 (approximately 10^5 cells) was mixed with 20 μl 20% (v/v) DMSO vehicle±compound in the wells of a flat-bottomed clear polystyrene 96-well micro-titre plate. The plate was incubated overnight at 37° C./220 rpm and the absorbance measured at 620 nm the following day.

[4] = test system: protease activity in skin wash samples from patients with acute AD; experiment: Protease activity in skin wash samples, fluorogenic enzyme assay; type: biochemical, human
Experimental: A method has been developed to evaluate protease activity in skin washings. Skin washings from patients with acute eczema may be obtained by aspirating 0.5 ml sterile physiological saline over the skin surface using a sterile, disposable plastic Pasteur pipette The skin area ( 1 cm^2) is defined by a sterile open-ended plastic cylinder. […] Samples were incubated at 37° C. in a POLARstar Optima plate reader (BMG Labtech Ltd.) and fluorescence readings (320 nm excitation/405 nm emission) taken every 15 min for 6 h. Activity was expressed as the rate of increase in fluorescence as a function of time.

[5] = biological target: T3, purified aureolysin type I (Staphylococcus aureus, UniProt P81177); experiment: biochemical
T3 construct: purchased BioCentrum Ltd

CNC(=O)[C@@H](NC(=O)[C@@H](CC(=O)NO)CC(C)C)C(C)(C)C [Compound 11, (R)—N1-((S)-3,3-dimethyl-1-(methylamino)-1-oxobutan-2-yl)-N4-hydroxy-2-isobutylsuccinamide]
IC50 [1]: 2400 nM
inhibition at 100 µM [2]: 0%
inhibition at 100 µM [3]: 2%
anti-bacterial activity (in words) ([3]; data in Tables 10 and 11): not anti-bacterial
inhibition of protease activity in skin wash samples (in words) ([4]; 50 μM, fluorogenic assay, AD patients): significant inhibition of protease activity
% Inhibition protease activity with compound 11 ([4]; 50 μM, skin wash sample 5): 100%
% Inhibition protease activity with compound 11 ([4]; 50 μM, skin wash sample 7): 48.7%
% Inhibition protease activity with compound 11 ([4]; 50 μM, skin wash sample 14): 88.5%
% Inhibition protease activity with compound 11 ([4]; 50 μM, skin wash sample 17): 96.4%
% Inhibition protease activity with compound 11 ([4]; 50 μM, skin wash sample 18): 75.6%
% Inhibition protease activity with compound 11 ([4]; 50 μM, skin wash sample 21): 85.1%
% Inhibition protease activity with compound 11 ([4]; 50 μM, skin wash sample 26): 85.3%
% Inhibition protease activity with compound 11 ([4]; 50 μM, skin wash sample 30): 100%
% Inhibition protease activity with compound 11 ([4]; 50 μM, skin wash sample 36): 95.3%
% Inhibition protease activity with compound 11 ([4]; 50 μM, skin wash sample 37): 81.8%
% Inhibition protease activity with compound 11 ([4]; 50 μM, skin wash sample 39): 100%
% Inhibition protease activity with compound 11 ([4]; 50 μM, skin wash sample 40): 85.6%
% Inhibition protease activity with compound 11 ([4]; 50 μM, skin wash sample 43): 91.8%
% Inhibition protease activity with compound 11 ([4]; 50 μM, skin wash sample 48): 96.9%
Protease activity with 50 μM compound 11 ([4]; skin wash sample 5): 0 FIU/min/μl
Protease activity with 50 μM compound 11 ([4]; skin wash sample 7): 0.271 FIU/min/μl
Protease activity with 50 μM compound 11 ([4]; skin wash sample 14): 0.0761 FIU/min/μl
Protease activity with 50 μM compound 11 ([4]; skin wash sample 17): 0.123 FIU/min/μl
Protease activity with 50 μM compound 11 ([4]; skin wash sample 18): 0.0674 FIU/min/μl
Protease activity with 50 μM compound 11 ([4]; skin wash sample 21): 0.0302 FIU/min/μl
Protease activity with 50 μM compound 11 ([4]; skin wash sample 24 (activity without compound 0)): 0.00122 FIU/min/μl
Protease activity with 50 μM compound 11 ([4]; skin wash sample 26): 0.0554 FIU/min/μl
Protease activity with 50 μM compound 11 ([4]; skin wash sample 30): 0 FIU/min/μl
Protease activity with 50 μM compound 11 ([4]; skin wash sample 36): 0.0173 FIU/min/μl
Protease activity with 50 μM compound 11 ([4]; skin wash sample 37): 0.126 FIU/min/μl
Protease activity with 50 μM compound 11 ([4]; skin wash sample 39): 0 FIU/min/μl
Protease activity with 50 μM compound 11 ([4]; skin wash sample 40): 0.103 FIU/min/μl
Protease activity with 50 μM compound 11 ([4]; skin wash sample 43): 0.0814 FIU/min/μl
Protease activity with 50 μM compound 11 ([4]; skin wash sample 48): 0.0287 FIU/min/μl
IC50 [5]: 1300 nM

CNC(=O)[C@@H](NC(=O)[C@H](CC(=O)NO)CC(C)C)C(C)(C)C [Compound 12, (S)—N1-((S)-3,3-dimethyl-1-(methylamino)-1-oxobutan-2-yl)-N4-hydroxy-2-isobutylsuccinamide]
IC50 [1]: 2200 nM
inhibition at 100 µM [2]: 0%
inhibition at 100 µM [3]: 0%
IC50 [5]: 1300 nM
